This passage reports Activity results from ChEMBL document CHEMBL1156504, “Structural characterization of the human androgen receptor ligand-binding domain complexed with EM5744, a rationally designed steroidal ligand bearing a bulky chain directed toward helix 12” (J Biol Chem, 2007).

For assay [1], the species on record is Mus musculus. As to the kind of experiment: Induction of proliferation of mouse Shionogi cells at 10 pM. The assay is classed as functional.
The species entered for assay [2] is Mus musculus. Description: Inhibition of 5-alpha-dihydrotestosterone-stimulated growth of mouse Shionogi cells at 1 uM. The assay is classed as functional.

Active and inactive are the calls of the source. The calls are words filed in the database; no cut-off is given here.

As to `C[C@]12CCC(=O)C[C@@H]1CC[C@@H]1[C@@H]2CC[C@]2(CCOCc3cc(F)cc(F)c3)[C@@H](O)CC[C@@H]12`, in assay [1], the result was Active. In assay [2], the result was inactive. As to `C[C@]12CCC(=O)C[C@@H]1CC[C@@H]1[C@@H]2CC[C@]2(C)[C@@H](O)CC[C@@H]12`, the result in assay [1] was Active.
